The values below are quoted from earlier work in patent US20060104967A1, “Method of converting the state of proteins” (priority 2004, published 2006).

*1 amine or outer side, *2 acyl side, *3 side chain or, on linkers, in order; H or OH if unused. Where a SMILES comes first, the peptide text is derived from it. Bridges are numbered along the chain shown (N, C = ends). [ ]: non-standard residue; d: D form. Adda = CO[C@@H](Cc1ccccc1)[C@@H](C)/C=C(C)/C=C/[C@H](N[*:1])[C@H](C)C(=O)[*:2]; dAsp(3S-Me) = C[C@H](C(=O)[*:3])[C@@H](N[*:1])C(=O)[*:2]; d(γGlu) = O=C(O)[C@@H](CCC(=O)[*:2])N[*:1]; NMeDha = C=C(NC)C(=O)O

This series addresses PP2B. As to conditions: read-out: Ki values for PP2B, concentrations of inhibitors where the enzyme activity becomes to half.

On to `C=C1C(=O)N[C@H](C)C(=O)N[C@@H](CC(C)C)C(=O)N[C@@H](C(=O)O)[C@H](C)C(=O)N[C@@H](CCCNC(=N)N)C(=O)N[C@@H](/C=C/C(C)=C/[C@H](C)[C@H](Cc2ccccc2)OC)[C@H](C)C(=O)N[C@@H](C(=O)O)CCC(=O)N1C` [microcystin LR] (R[Adda][d(γGlu)][NMeDha][dA]L[dAsp(3S-Me)]-OH; lactam N-7), for which the Ki was 200 µM.

For the compound `C=C1[C@@H](O)[C@@H]2O[C@]3(CC[C@H](/C=C/[C@@H](C)[C@@H]4CC(C)=C[C@@]5(O[C@H](C[C@@](C)(O)C(=O)O)CC[C@H]5O)O4)O3)CC[C@H]2O[C@@H]1[C@@H](O)C[C@H](C)[C@H]1O[C@@]2(CCCCO2)CC[C@H]1C` [okadaic acid], the Ki was 5000 µM.
